Measured values published in patent publication US7538085B2, “Peptide deformylase inhibitors as novel antibiotics” (The Ohio State University Research Foundation, priority 2003, dated 2009).
Values after ≈ are worked out from the molar mass of the structure shown. Like-named read-outs stand apart in the source and are kept apart here.

How the values were obtained:
[1] = molecular target: T1, Co(II)-substituted E. coli PDF (Escherichia coli, UniProt P0A6K3); assay: PDF assay coupled to formate dehydrogenase; type: biochemical
T1 construct: made in house

MMP2 = molecular target: T2, MMP2 (Homo sapiens, UniProt P08253); assay: Inhibition of human matrix metalloproteases; type: biochemical; details: read-out: percentage of MMP2 activity remaining; for remaining activity at 1 µM: inhibitor 1.0 μM; for remaining activity at 10 µM: inhibitor 10 μM
T2 sequence (P08253 110-660): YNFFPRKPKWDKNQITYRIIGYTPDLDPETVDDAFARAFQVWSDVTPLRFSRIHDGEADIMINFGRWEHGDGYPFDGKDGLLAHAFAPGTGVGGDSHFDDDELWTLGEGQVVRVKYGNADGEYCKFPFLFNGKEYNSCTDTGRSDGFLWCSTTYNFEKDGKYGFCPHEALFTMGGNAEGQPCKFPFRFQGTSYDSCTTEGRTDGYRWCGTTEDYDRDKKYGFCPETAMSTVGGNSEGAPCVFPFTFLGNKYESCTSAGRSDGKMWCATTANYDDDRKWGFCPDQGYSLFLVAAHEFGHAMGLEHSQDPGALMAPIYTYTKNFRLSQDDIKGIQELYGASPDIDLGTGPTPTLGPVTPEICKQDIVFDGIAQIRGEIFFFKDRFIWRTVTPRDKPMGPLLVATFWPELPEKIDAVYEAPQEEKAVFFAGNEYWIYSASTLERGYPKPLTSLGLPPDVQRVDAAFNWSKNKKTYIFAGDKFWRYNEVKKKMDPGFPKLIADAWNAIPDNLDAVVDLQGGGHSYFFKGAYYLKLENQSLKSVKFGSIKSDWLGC
Procedure: (§1) Inhibition of Metalloproteases (MMP) Several of the inhibitors were tested for inhibition of human matrix metalloproteases, which are often used as indicators of inhibitor selectivity (no inhibition of MMP is desired). Each inhibitor was tested at two different concentrations (1.0 and 10 μM). The values reported are the percentage of MMP activity remaining in the presence of added inhibitor.

MMP-1 = molecular target: T3, MMP-1 (Homo sapiens, UniProt P03956); assay: Inhibition of human matrix metalloproteases; type: biochemical; details: read-out: percentage of MMP-1 activity remaining; for remaining activity at 1 µM: inhibitor 1.0 μM; for remaining activity at 10 µM: inhibitor 10 μM
T3 sequence (P03956 100-469): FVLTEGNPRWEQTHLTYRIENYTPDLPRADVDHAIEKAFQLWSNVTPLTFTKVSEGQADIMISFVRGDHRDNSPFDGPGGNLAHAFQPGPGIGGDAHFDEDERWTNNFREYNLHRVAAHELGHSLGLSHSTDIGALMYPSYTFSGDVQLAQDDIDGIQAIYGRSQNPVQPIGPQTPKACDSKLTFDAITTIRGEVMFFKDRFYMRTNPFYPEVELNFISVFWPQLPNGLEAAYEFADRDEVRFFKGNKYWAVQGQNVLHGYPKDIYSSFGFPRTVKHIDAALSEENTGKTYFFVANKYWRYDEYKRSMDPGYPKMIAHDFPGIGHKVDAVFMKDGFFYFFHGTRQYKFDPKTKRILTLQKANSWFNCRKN
Procedure: as §1

MMP-3 = MMP-3 (Homo sapiens, UniProt P08254); assay: Inhibition of human matrix metalloproteases; type: biochemical; details: read-out: percentage of MMP-3 activity remaining; for remaining activity at 1 µM: inhibitor 1.0 μM; for remaining activity at 10 µM: inhibitor 10 μM
Procedure: as §1

MMP-9 = MMP-9 (Homo sapiens, UniProt P14780); assay: Inhibition of human matrix metalloproteases; type: biochemical; details: read-out: percentage of MMP-9 activity remaining; for remaining activity at 1 µM: inhibitor 1.0 μM; for remaining activity at 10 µM: inhibitor 10 μM
Procedure: as §1

E. coli = assay: Antibacterial activity (cell growth, MIC); type: cell-based; details: Escherichia coli
Procedure: (§2) FIG. 5 Inhibition of B. subtilis (A) and E. coli (B) cell growth by inhibitor 2. An overnight culture was diluted 1000-fold into 2 mL of fresh LB medium containing the specified concentrations of inhibitor 2 and incubated at 37° C. Cell densities were measured at the specified times on a UV-vis spectrophotometer.
(§3) The in vitro antibacterial activity of the cyclic inhibitor was tested against E. coli and Bacillus subtilis, the representative Gram-negative and Gram-positive bacteria, respectively.
(§4) Antimicrobial Susceptibility Testing. For Escherichia coli and Bacillus subtilis, cell growth was monitored on the Lambda-20 UV/Vis spectrophotometer at 600 nm. A single bacterial colony from a plate culture was grown overnight in LB media and was diluted 1000-fold into 2 mL of fresh growth medium containing 0-64 μg/mL of test agent in a 5-mL glass test tube shaken at a speed of 250 rpm. Cell growth (at 37° C.) was monitored for 0-600 min.
(§5) Antibacterial Activity of PDF Inhibitors Inhibitors 2-7E were tested against two or more bacterial strains for antibacterial activities.

B. subtilis = assay: Antibacterial activity (cell growth, MIC); type: cell-based; details: Bacillus subtilis, read-out: MIC
Procedure: as §2, §3, §4, §5

[2] = tested on: S. pneumoniae (ATCC 6301); assay: Antibacterial activity (MIC); type: cell-based; details: Streptococcus pneumoniae, ATCC6301
Procedure: as §5

E. faecalis (ATCC 29212) = assay: Antibacterial activity (MIC); type: cell-based; details: Enterococcus faecalis, ATCC29212
Procedure: as §5

S. aureus (ATCC 29213) = assay: Antibacterial activity (MIC); type: cell-based; details: Staphylococcus aureus, ATCC29213
Procedure: as §5

[3] = tested on: M. catarrhalis (ATCC 37054); assay: Antibacterial activity (MIC); type: cell-based; details: Moraxella catarrhalis, ATCC37054
Procedure: as §5

[4] = tested on: H. influenzae (ATCC 31517); assay: Antibacterial activity (MIC); type: cell-based; details: Haemophilus influenzae, ATCC31517
Procedure: as §5

[5] = tested on: S. pneumoniae (ATCC 49619); assay: Antibacterial activity (MIC); type: cell-based; details: Streptococcus pneumoniae, ATCC49619
Procedure: as §5

[6] = tested on: S. pneumoniae (ATCC 6303); assay: Antibacterial activity (MIC); type: cell-based; details: Streptococcus pneumoniae, ATCC6303
Procedure: as §5

[7] = formate dehydrogenase-coupled assay, 4 nM E. coli PDF, pH 7.0, read-out: K1 (apparent inhibition constant)

Chain of MMP-9 (P14780 94-707): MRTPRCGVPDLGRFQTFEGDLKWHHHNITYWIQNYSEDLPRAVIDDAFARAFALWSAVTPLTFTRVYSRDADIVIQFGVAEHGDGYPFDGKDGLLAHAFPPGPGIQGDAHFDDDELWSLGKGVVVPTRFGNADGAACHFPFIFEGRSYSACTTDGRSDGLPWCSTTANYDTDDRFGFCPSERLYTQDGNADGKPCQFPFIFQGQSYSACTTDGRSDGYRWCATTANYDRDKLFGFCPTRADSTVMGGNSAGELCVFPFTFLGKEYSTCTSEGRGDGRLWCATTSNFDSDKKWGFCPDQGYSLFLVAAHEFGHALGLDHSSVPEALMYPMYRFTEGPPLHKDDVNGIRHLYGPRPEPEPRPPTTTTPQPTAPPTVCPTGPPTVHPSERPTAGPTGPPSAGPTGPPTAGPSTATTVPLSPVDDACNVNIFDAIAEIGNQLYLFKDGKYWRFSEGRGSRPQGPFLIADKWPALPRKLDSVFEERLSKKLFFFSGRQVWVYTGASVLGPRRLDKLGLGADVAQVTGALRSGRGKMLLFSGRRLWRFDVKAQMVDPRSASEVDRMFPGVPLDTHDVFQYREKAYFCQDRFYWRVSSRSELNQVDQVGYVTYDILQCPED
T1 sequence (P0A6K3 whole entry): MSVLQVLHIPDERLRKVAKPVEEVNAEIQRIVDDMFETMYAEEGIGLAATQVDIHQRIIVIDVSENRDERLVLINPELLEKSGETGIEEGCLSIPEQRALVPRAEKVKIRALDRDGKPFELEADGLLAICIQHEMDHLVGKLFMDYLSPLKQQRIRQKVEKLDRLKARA
Chain of MMP-3 (P08254 100-477): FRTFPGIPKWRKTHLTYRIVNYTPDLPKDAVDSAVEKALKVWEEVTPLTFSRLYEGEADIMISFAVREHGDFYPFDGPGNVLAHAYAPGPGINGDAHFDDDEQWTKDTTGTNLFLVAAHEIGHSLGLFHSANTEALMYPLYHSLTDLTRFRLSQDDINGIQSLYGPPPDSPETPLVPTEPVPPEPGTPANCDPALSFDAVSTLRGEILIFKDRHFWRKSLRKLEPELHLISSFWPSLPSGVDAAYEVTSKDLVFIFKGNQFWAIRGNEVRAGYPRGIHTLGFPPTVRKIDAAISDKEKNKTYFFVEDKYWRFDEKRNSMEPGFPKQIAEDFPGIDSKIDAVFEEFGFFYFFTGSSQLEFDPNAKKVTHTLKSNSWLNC

SMILES	Ki [1] [nM]	remaining activity at 1 µM (MMP2) [%]	remaining activity at 10 µM (MMP2) [%]	remaining activity at 1 µM (MMP-1) [%]	remaining activity at 10 µM (MMP-1) [%]	remaining activity at 1 µM (MMP-3) [%]	remaining activity at 10 µM (MMP-3) [%]	remaining activity at 1 µM (MMP-9) [%]	remaining activity at 10 µM (MMP-9) [%]	MIC (E. coli) [µg/mL]	MIC (B. subtilis) [µg/mL]	MIC [2] [µg/mL]	MIC (E. faecalis (ATCC 29212)) [µg/mL]	MIC (S. aureus (ATCC 29213)) [µg/mL]	MIC [3] [µg/mL]	MIC [4] [µg/mL]	MIC [5] [µg/mL]	MIC [6] [µg/mL]	Ki [1, 7] [nM]
CC(=O)NCCCC[C@@H]1NC(=O)[C@@H](CN(O)C=O)CCCCCCCCCNC1=O [Compound 8E]	12 ± 4	83	80	97	87	100	92	92	92										
CC(C)(C)[C@@H]1NC(=O)[C@@H](CN(O)C=O)CCCCCCCCCCCCCCNC1=O [Compound 5E]	25 ± 6	100	100	93	92	97	96	96	94	> 24	~16 (≈ 36.4 µM)	8 (≈ 18.2 µM)	> 32	> 32	< 0.031	> 32	8 (≈ 18.2 µM)	4 (≈ 9.1 µM)	
CC(C)(C)[C@@H]1NC(=O)[C@@H](CN(O)C=O)CCCCCCCCCCNC1=O [Compound 3E]																			0.4
CC(C)(C)[C@@H]1NC(=O)[C@@H](CN(O)C=O)CCCCCCCNC1=O [Compound 1E]		90	85	100	99	97	80	92	89										14 ± 3
CCCC[C@H](CN(O)C=O)C(=O)N[C@H](C(=O)N(C)C)C(C)(C)C [BB-3497, reference compound]																			~7
